Key:
[1] = system: LN-229 glioblastoma cell line; test: Antiproliferative activity (MTS), LN-229; details: Homo sapiens, LN-229, 72 h, read-out: IC50 Values LN-229
[2] = system: MCF7 breast carcinoma cell line; test: Antiproliferative activity (MTS), MCF7; details: Homo sapiens, MCF7, 72 h, read-out: IC50 Values MCF7
U87MG glioblastoma cells = test: Antiproliferative activity (MTS), U87MG; details: Homo sapiens, U-87 MG, 72 h, read-out: IC50 Values U87MG
U-251 glioblastoma cells = test: Antiproliferative activity (MTS), U-251; details: Homo sapiens, U-251, 72 h, read-out: IC50 Values U-251
[3] = system: AsPC-1 pancreas adenocarcinoma cell line; test: Antiproliferative activity (MTS), AsPC-1; details: Homo sapiens, ASPC1, 72 h, read-out: IC50 Values AsPC-1
[4] = system: 1321N1 astrocytoma cell line; test: Antiproliferative activity (MTS), 1321N1; details: Homo sapiens, 1321-N1, 72 h, read-out: IC50 Values 1321N1
human 5-HT6 = molecular target: T1, human 5-HT6 (Homo sapiens, UniProt P50406); test: [3H]-LSD radioligand binding assay, 5-HT6R; details: HEK293 expressing human 5-HT6R, read-out: 5-HT6 Ki
T1 construct: expressed in transfected cells
Experimental: Next, the ligands’ affinity for the 5-HT6 receptors was evaluated in the [^3H]-LSD radioligand binding assay. Experiments were performed in a stable HEK293 cell line expressing the human 5-HT6R.
The pellets were stored at −80 °C.

[5] = Chromatographic hydrophobicity index on C18 column (lipophilicity); assay type: physicochemical
[6] = Affinity to phospholipids, IAM column (CHI IAM); assay type: physicochemical; details: IAM.PC.DD2 column, pH 7.4
Text: We began with an assay for lipophilicity, affinity for phospholipids (for 40 compounds), and drug binding to human serum albumin (HSA) (for 20 compounds), using chromatographic protocols developed by Valko [46] and implemented in our laboratory [47]. […] These methods allowed the determination of chromatographic hydrophobicity indices (CHIs), binding to HSA (%HSA), and phospholipids (CHIIAM) using a single-gradient elution experiment and comparison to reference substances.

[7] = molecular target: human serum albumin (HSA) (Homo sapiens, UniProt P02768); test: Binding to HSA, Chiralpak HSA column; details: Chiralpak HSA column
Text: We began with an assay for lipophilicity, affinity for phospholipids (for 40 compounds), and drug binding to human serum albumin (HSA) (for 20 compounds), using chromatographic protocols developed by Valko [46] and implemented in our laboratory. Compounds with the highest affinity for 5-HT6R and those showing the most promising ADMET parameters, including the possibility of BBB penetration, DDI, and lipophilicity, determined in silico in SwissADME [45], were selected for testing. These methods allowed the determination of chromatographic hydrophobicity indices (CHIs), binding to HSA (%HSA), and phospholipids (CHIIAM) using a single-gradient elution experiment and comparison to reference substances.
The use of columns modified with plasma proteins, such as HSA, also allows for the estimation of binding to HSA, which is the most dominant plasma protein (PP). Binding to PP affects drug pharmacokinetics, such as distribution, half-life, and clearance.
The mobile phase flow rate was 1.5 mL/min, and the column was maintained at 30 °C. • Chiralpak® HSA (50 mm × 4 mm; 5 µm with safety guard column; Daicel Chiral Technologies, West Chester, PA, USA), mobile phase A: 50 mM ammonium acetate, mobile phase B: HPLC-grade isopropanol (VWR International, Leuven, Belgium). For the first 15 min, the linear gradient from 0 to 20% isopropanol was applied and then held at 20% isopropanol for 12 min. In the last 5 min of the sequence, the mobile phase mixture received a pure ammonium acetate solution. The column temperature was held at 30 °C, whereas the flow rate was 0.9 mL/min.
The reference substances for the calibration of HSA, C18, and IAM columns were purchased, respectively: acetanilide, butyrophenone, diclofenac, and octanonophenone (Alfa Aesar, Haverhill, MA, USA); acetophenone, benzimidazole, colchicine, indole, indometacin, paracetamol, and theophylline (Sigma-Aldrich, Steinheim, Germany); nicardipine and nizatidine (Cayman Chemical, Ann Arbor, MI, USA); carbamazepine, heptanophenone, hexanophenone, propiophenone, and valerophenone (Acros Organic, Pittsburg, PA, USA). Before chromatographic experiments, solutes were dissolved in dimethyl sulfoxide (Avantor Performance Materials Poland S.A., Gliwice, Poland) to obtain a 200 µg/mL concentration. The detection was performed in the UV region at the wavelength from 190 nm to 300 nm. The injected volume was 5 μL, and each compound was analyzed in triplicate.

Sequence of human serum albumin (HSA) (P02768 25-609): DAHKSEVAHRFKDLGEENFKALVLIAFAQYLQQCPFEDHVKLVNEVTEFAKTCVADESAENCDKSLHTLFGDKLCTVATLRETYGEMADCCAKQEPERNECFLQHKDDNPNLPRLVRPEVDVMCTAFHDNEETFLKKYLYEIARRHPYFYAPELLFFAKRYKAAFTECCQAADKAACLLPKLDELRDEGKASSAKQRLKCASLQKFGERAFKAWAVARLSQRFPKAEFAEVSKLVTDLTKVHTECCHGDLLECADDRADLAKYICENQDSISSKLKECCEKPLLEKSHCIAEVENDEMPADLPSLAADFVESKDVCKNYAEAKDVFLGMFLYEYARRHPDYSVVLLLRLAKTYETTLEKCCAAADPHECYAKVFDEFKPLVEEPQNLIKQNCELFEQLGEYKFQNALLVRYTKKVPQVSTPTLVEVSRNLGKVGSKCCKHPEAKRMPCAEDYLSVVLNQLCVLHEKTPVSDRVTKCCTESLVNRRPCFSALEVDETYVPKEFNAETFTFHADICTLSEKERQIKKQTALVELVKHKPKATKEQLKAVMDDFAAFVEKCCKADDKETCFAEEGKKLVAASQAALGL
T1 sequence (P50406 whole entry): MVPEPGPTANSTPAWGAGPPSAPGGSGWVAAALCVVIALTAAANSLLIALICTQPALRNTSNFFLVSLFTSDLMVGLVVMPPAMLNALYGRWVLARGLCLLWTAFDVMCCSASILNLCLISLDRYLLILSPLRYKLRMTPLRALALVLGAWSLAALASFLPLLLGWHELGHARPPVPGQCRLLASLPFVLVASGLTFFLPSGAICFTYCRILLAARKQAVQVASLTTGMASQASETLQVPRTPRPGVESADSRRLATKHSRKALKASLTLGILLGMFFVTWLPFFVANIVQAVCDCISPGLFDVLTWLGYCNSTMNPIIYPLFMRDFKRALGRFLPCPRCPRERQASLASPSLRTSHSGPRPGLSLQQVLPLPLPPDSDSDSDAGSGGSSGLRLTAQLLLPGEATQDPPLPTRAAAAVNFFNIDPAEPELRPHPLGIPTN

Structure (SMILES)	IC50 [1]	IC50 [2]	IC50 (U87MG glioblastoma cells)	IC50 (U-251 glioblastoma cells)	IC50 [3]	IC50 [4]	Ki (human 5-HT6)	melting point	CHI C18 pH 2.6 [5]	CHI C18 pH 7.4 [5]	CHI C18 pH 10.5 [5]	CHI IAM [6]	%HSA [7]	logKHSA [7]	acid–base properties ([5]; comparison of CHI values at different pH levels)
CC1NC(NS(=O)(=O)c2ccc3ccccc3c2)=Nc2ccc(Br)cc21 (stereo not shown) [PR 36, N -(6-bromo-4-methyl-3,4-dihydroquinazolin-2-yl)naphthalene-2-sulfonamide]	> 25 µM	> 25 µM	> 25 µM	> 25 µM	> 25 µM	> 25 µM	29.4 ± 7.36 µM								
COc1cccc2c1CNC(NS(=O)(=O)c1cccc3ccccc13)=N2 [PR 58, N -(5-methoxy-3,4-dihydroquinazolin-2-yl)naphthalene-1-sulfonamide]	> 25 µM	> 25 µM	> 25 µM	> 25 µM	> 25 µM	> 25 µM	0.172 ± 0.041 µM	245 to 249 °C	92.8	90.8	96.6	41.4	97.3%	1.4	
O=S(=O)(NC1=Nc2ccccc2CN1)c1ccc(OC(F)(F)F)cc1 [PR 17, N -(3,4-dihydroquinazolin-2-yl)-4-(trifluoromethoxy)benzene-1-sulfonamide]			> 25 µM			> 25 µM	9.85 ± 2.46 µM	161 to 163 °C	94.2	93.2	95.0	38.7	93.7%	1.1	
O=S(=O)(Nc1nc2ccccc2[nH]1)c1cccc2ccccc12 [PR 11, N -(1H-1,3-benzodiazol-2-yl)naphthalene-1-sulfonamide]	> 25 µM	> 25 µM	> 25 µM	> 25 µM	> 25 µM	> 25 µM	0.325 ± 0.081 µM	> 315 °C	78.8	76.7	58.4	39.3	95.7%	1.3	acidic
O=S(=O)(NC1=Nc2ccccc2CN1)c1cccc(Cl)c1 [PR 19, 3-chloro-N-(3,4-dihydroquinazolin-2-yl)benzene-1-sulfonamide]	> 25 µM	> 25 µM	> 25 µM	> 25 µM	> 25 µM	> 25 µM	0.521 ± 0.13 µM	176 to 180 °C	83.7	83.2	87.3	36.6	91.3%	1.0	
Nc1nc2ccccc2n1S(=O)(=O)c1cccc2cccnc12 [PR 9, 1-(quinoline-8-sulfonyl)-1H-1,3-benzodiazol-2-amine]			> 25 µM			> 25 µM	0.318 ± 0.018 µM	254 to 256 °C	75.1	79.2	79.6	35.7	94.3%	1.1	
O=S(=O)(NC1=Nc2ccccc2CN1)c1ccc2c(Cl)cccc2c1 [PR 30, 5-chloro-N-(3,4-dihydroquinazolin-2-yl)naphthalene-2-sulfonamide]	> 25 µM	> 25 µM		> 25 µM	> 25 µM		0.972 ± 0.242 µM	192 to 195 °C	99.1	97.7	100.4	45.2			
O=S(=O)(NC1=Nc2ccccc2CCN1)c1cccc2ccccc12 [PR 78, N -(4,5-dihydro-3H-1,3-benzodiazepin-2-yl)naphthalene-1-sulfonamide]	> 25 µM	> 25 µM	> 25 µM	> 25 µM	> 25 µM	> 25 µM	0.273 ± 0.068 µM	178 to 180 °C							
O=S(=O)(NC1=Nc2cccc(Cl)c2CN1)c1ccc(Cl)c2ccccc12 [PR 53, 4-chloro-N-(5-chloro-3,4-dihydroquinazolin-2-yl)naphthalene-1-sulfonamide]	> 25 µM	> 25 µM	> 25 µM	> 25 µM	> 25 µM	> 25 µM	0.189 ± 0.042 µM	217 to 223 °C	111.2	109.2	112.5	51.6	99.5%	1.8	
O=S(=O)(NC1=Nc2ccc(Cl)cc2CN1)c1cccc2ccccc12 [PR 47, N -(6-chloro-3,4-dihydroquinazolin-2-yl)naphthalene-1-sulfonamide]			> 25 µM			> 25 µM	0.341 ± 0.076 µM	275 to 277 °C	96.5	95.3	98.1	44.0	97.8%	1.5	
O=S(=O)(NC1=Nc2cccc(F)c2CN1)c1cccc2ccccc12 [PR 54, N -(5-fluoro-3,4-dihydroquinazolin-2-yl)naphthalene-1-sulfonamide]			> 25 µM			> 25 µM	0.381 ± 0.088 µM	191 to 193 °C	90.8	89.4	92.4	40.8	96.4%	1.3	
O=S(=O)(NC1=Nc2ccccc2CN1)c1c(Cl)ccc2ccccc12 [PR 41, 2-chloro-N-(3,4-dihydroquinazolin-2-yl)naphthalene-1-sulfonamide]			> 25 µM			> 25 µM	0.21 ± 0.048 µM	241 to 244 °C	95.8	93.1	96.2	42.9	97.1%	1.4	
O=S(=O)(NC1=Nc2c(Cl)cc(Cl)cc2CN1)c1cccc2ccccc12 [PR 51, N -(6,8-dichloro-3,4-dihydroquinazolin-2-yl)naphthalene-1-sulfonamide]			> 25 µM			> 25 µM	0.866 ± 0.199 µM	214 to 219 °C	108.2	106.2	110.1	48.4	99.0%	1.7	
